Laboratory results taken from the supplement of paper PMC10307832.

What was measured:
Experiment in all cases: relative viability (nuclei count vs DMSO), 5 days (fraction); higher = more cells survive
ChaGo-K-1 = tested on: ChaGo-K-1
In short: (§1)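 Lung cancer cell lines, seeded in 1536-well plates, were treated the following day by pin tool with a single drug or with five library-drug doses (not always all listed) in √10 steps on top of a fixed anchor-drug dose. Cells were fixed and nuclei stained in one step after 5 days, and nuclei were counted. Relative viability is the nuclei count for treated wells divided by that for vehicle wells, reported as medians of duplicate plates.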

EBC-1 = tested on: EBC-1
In short: as §1

Calu-6 = tested on: Calu-6
In short: as §1

IA-LM = tested on: IA-LM
In short: as §1

NCI-H1299 = tested on: NCI-H1299
In short: as §1

NCI-H1703 = tested on: NCI-H1703
In short: as §1

A549 = tested on: A549
In short: as §1

C[C@@H]1CN(CC(=O)Nc2ccc3c(c2)Cc2cccc(-c4cc(=O)cc(N5CCOCC5)o4)c2S3)C[C@H](C)O1 + CC(C)C[C@H](NC(=O)[C@H](Cc1ccccc1)NC(=O)c1cnccn1)B(O)O [Bortezomib] (partner 0.002 µM)
relative viability (ChaGo-K-1; first compound 0.1265 µM): 1.02
relative viability (ChaGo-K-1; first compound 0.4 µM): 0.936
relative viability (ChaGo-K-1; first compound 4 µM): 0.87
relative viability (EBC-1; first compound 0.04 µM): 0.636
relative viability (EBC-1; first compound 0.1265 µM): 0.535
relative viability (EBC-1; first compound 0.4 µM): 0.472
relative viability (EBC-1; first compound 4 µM): 0.335
relative viability (Calu-6; first compound 0.04 µM): 1.07
relative viability (Calu-6; first compound 0.1265 µM): 1.03
relative viability (Calu-6; first compound 0.4 µM): 1.08
relative viability (Calu-6; first compound 4 µM): 0.66
relative viability (IA-LM; first compound 0.04 µM): 0.669
relative viability (IA-LM; first compound 0.1265 µM): 0.773
relative viability (IA-LM; first compound 0.4 µM): 0.832
relative viability (IA-LM; first compound 4 µM): 0.375
relative viability (NCI-H1299; first compound 0.04 µM): 1.03
relative viability (NCI-H1299; first compound 0.1265 µM): 1.03
relative viability (NCI-H1299; first compound 0.4 µM): 1.01
relative viability (NCI-H1299; first compound 4 µM): 0.926
relative viability (NCI-H1703; first compound 0.04 µM): 0.469
relative viability (NCI-H1703; first compound 0.1265 µM): 0.365
relative viability (NCI-H1703; first compound 0.4 µM): 0.241
relative viability (NCI-H1703; first compound 4 µM): 0.254

Clc1ccc(Nc2nnc(Cc3ccncc3)c3ccccc23)cc1 [Vatalanib] + C[C@]1(O)C[C@@H](c2nc(-c3ccc4ccc(-c5ccccc5)nc4c3)c3c(N)nccn32)C1 [Linsitinib] (partner 1 µM)
relative viability (A549; first compound 0.04 µM): 0.51
relative viability (A549; first compound 0.1265 µM): 0.573
relative viability (A549; first compound 0.4 µM): 0.703
relative viability (A549; first compound 1.265 µM): 0.656
relative viability (A549; first compound 4 µM): 0.592
relative viability (EBC-1; first compound 0.04 µM): 1.14
relative viability (EBC-1; first compound 0.1265 µM): 0.777
relative viability (EBC-1; first compound 0.4 µM): 0.994
relative viability (EBC-1; first compound 1.265 µM): 0.812
relative viability (EBC-1; first compound 4 µM): 0.808
relative viability (Calu-6; first compound 0.1265 µM): 0.926
relative viability (Calu-6; first compound 0.4 µM): 1.02
relative viability (Calu-6; first compound 1.265 µM): 0.912
relative viability (Calu-6; first compound 4 µM): 1.01
relative viability (IA-LM; first compound 0.04 µM): 0.763
relative viability (IA-LM; first compound 0.1265 µM): 0.59
relative viability (IA-LM; first compound 0.4 µM): 0.69
relative viability (IA-LM; first compound 1.265 µM): 0.55
relative viability (IA-LM; first compound 4 µM): 0.582
relative viability (NCI-H1299; first compound 0.04 µM): 1.05
relative viability (NCI-H1299; first compound 0.1265 µM): 0.955
relative viability (NCI-H1299; first compound 0.4 µM): 0.948
relative viability (NCI-H1299; first compound 1.265 µM): 0.961
relative viability (NCI-H1299; first compound 4 µM): 0.967
relative viability (NCI-H1703; first compound 0.04 µM): 0.804
relative viability (NCI-H1703; first compound 0.4 µM): 1.21
relative viability (NCI-H1703; first compound 1.265 µM): 0.386
relative viability (NCI-H1703; first compound 4 µM): 0.211

CC(C)Oc1cc(Nc2nc(N[C@@H](C)c3ccc(F)cn3)ncc2Cl)n[nH]1 [AZ23] + CS(=O)(=O)CCNCc1ccc(-c2ccc3ncnc(Nc4ccc(OCc5cccc(F)c5)c(Cl)c4)c3c2)o1 [Lapatinib] (partner 2 µM)
relative viability (A549; first compound 0.01 µM): 1.16
relative viability (A549; first compound 0.03162 µM): 0.945
relative viability (A549; first compound 0.3162 µM): 1.02
relative viability (EBC-1; first compound 0.03162 µM): 0.234
relative viability (EBC-1; first compound 0.3162 µM): 0.194
relative viability (Calu-6; first compound 0.03162 µM): 1.25
relative viability (Calu-6; first compound 0.3162 µM): 1.08
relative viability (IA-LM; first compound 0.01 µM): 0.872
relative viability (IA-LM; first compound 0.03162 µM): 1.37
relative viability (IA-LM; first compound 0.3162 µM): 0.871
relative viability (NCI-H1299; first compound 0.01 µM): 0.977
relative viability (NCI-H1299; first compound 0.03162 µM): 1.08
relative viability (NCI-H1299; first compound 0.3162 µM): 1.03
relative viability (NCI-H1703; first compound 0.01 µM): 0.939
relative viability (NCI-H1703; first compound 0.03162 µM): 1.16
relative viability (NCI-H1703; first compound 0.3162 µM): 1.3

COc1cc(N2CCC(C(N)=O)CC2)ccc1Nc1nc(N)c(Cl)c(Nc2ccccc2S(=O)(=O)C(C)C)n1 [HG-5-88-01] + Cc1nc(NC(=O)N2CCC[C@H]2C(N)=O)sc1-c1ccnc(C(C)(C)C(F)(F)F)c1 [Alpelisib] (partner 2 µM)
relative viability (A549; first compound 0.04 µM): 0.925
relative viability (A549; first compound 0.1265 µM): 0.715
relative viability (A549; first compound 0.4 µM): 0.698
relative viability (A549; first compound 1.265 µM): 0.474
relative viability (A549; first compound 4 µM): 0.527
relative viability (EBC-1; first compound 0.04 µM): 0.876
relative viability (EBC-1; first compound 0.1265 µM): 0.98
relative viability (EBC-1; first compound 0.4 µM): 0.795
relative viability (EBC-1; first compound 1.265 µM): 0.768
relative viability (EBC-1; first compound 4 µM): 0.86
relative viability (Calu-6; first compound 0.04 µM): 1.02
relative viability (Calu-6; first compound 0.1265 µM): 1.01
relative viability (Calu-6; first compound 0.4 µM): 0.908
relative viability (Calu-6; first compound 1.265 µM): 0.856
relative viability (Calu-6; first compound 4 µM): 0.885
relative viability (IA-LM; first compound 0.04 µM): 0.722
relative viability (IA-LM; first compound 0.1265 µM): 1
relative viability (IA-LM; first compound 0.4 µM): 0.627
relative viability (IA-LM; first compound 1.265 µM): 0.447
relative viability (IA-LM; first compound 4 µM): 0.503
relative viability (NCI-H1299; first compound 0.04 µM): 1.04
relative viability (NCI-H1299; first compound 0.1265 µM): 1.09
relative viability (NCI-H1299; first compound 0.4 µM): 0.972
relative viability (NCI-H1299; first compound 1.265 µM): 1.05
relative viability (NCI-H1299; first compound 4 µM): 1.12
relative viability (NCI-H1703; first compound 0.04 µM): 0.265
relative viability (NCI-H1703; first compound 0.1265 µM): 0.317
relative viability (NCI-H1703; first compound 0.4 µM): 0.38
relative viability (NCI-H1703; first compound 1.265 µM): 0.303
relative viability (NCI-H1703; first compound 4 µM): 0.399
